Results as given in US9113629B2, “4-amino-6-(4-substituted-phenyl)-picolinates and 6-amino-2-(4-substituted-phenyl)-pyrimidine-4-carboxylates and their use as herbicides” (DOW AGROSCIENCES LLC, priority 2013, dated 2015).

Test system: TRZSS: wheat, including spring and winter (Triticum aestivum)
Assay: Post-emergent Test III, herbicidal activity in wheat and barley
Assay type: in vivo
Settings: Table 9; dose for 20 percent growth reduction, probit analysis; 21 d
Experimental: (§1) Post-emergent Test III. Seeds of the desired test plant species were planted in Sun Gro MetroMix® 306 planting mixture, which typically has a pH of 6.0 to 6.8 and an organic matter content of about 30 percent, in plastic pots with a surface area of 103.2 square centimeters (cm^2). When required to ensure good germination and healthy plants, a fungicide treatment and/or other chemical or physical treatment was applied. The plants were grown for 7-36 days (d) in a greenhouse with an approximate 14 hour (h) photoperiod which was maintained at about 18° C. during the day and 17° C. during the night. Nutrients and water were added on a regular basis and supplemental lighting was provided with overhead metal halide 1000-Watt lamps as necessary. The plants were employed for testing when they reached the second or third true leaf stage.
(§2) A weighed amount, determined by the highest rate to be tested, of each test compound was placed in a 25 mL glass vial and was dissolved in 4 mL of a 97:3 v/v mixture of acetone and DMSO to obtain concentrated stock solutions. […] The concentrated stock solutions obtained were diluted with 20 mL of an aqueous mixture containing acetone, water, isopropyl alcohol, DMSO, Agri-Dex crop oil concentrate, and X-77 surfactant in a 48:39:10:1.5:1.5:0.02 v/v ratio to obtain spray solutions containing the highest application rates. Additional application rates were obtained by serial dilution of 12 mL of the high rate solution into a solution containing 2 mL of 97:3 v/v mixture of acetone and DMSO and 10 mL of an aqueous mixture containing acetone, water, isopropyl alcohol, DMSO, Agri-Dex crop oil concentrate, and X-77 surfactant in a 48:39:10:1.5:1.5:0.02 v/v ratio to obtain ½×, ¼×, ⅛× and 1/16× rates of the high rate. Compound requirements are based upon a 12 mL application volume at a rate of 187 liters per hectare (L/ha). Formulated compounds were applied to the plant material with an overhead Mandel track sprayer equipped with 8002E nozzles calibrated to deliver 187 L/ha over an application area of 0.503 square meters at a spray height of 18 inches (43 cm) above the average plant canopy height. Control plants were sprayed in the same manner with the solvent blank.
(§3) The treated plants and control plants were placed in a greenhouse as described above and watered by subirrigation to prevent wash-off of the test compounds. After 21 d, the condition of the test plants as compared with that of the untreated plants was determined visually and scored on a scale of 0 to 100 percent where 0 corresponds to no injury and 100 corresponds to complete kill.
(§4) By applying the well-accepted probit analysis as described by J. Berkson in Journal of the American Statistical Society, 48, 565 (1953) and by D. Finney in “Probit Analysis” Cambridge University Press (1952), herbicidal injury of a specific compound at various rates can be used to calculate GR20, GR50, GR80 and GR90 values, which are defined as growth reduction factors that correspond to the effective dose of herbicide required to provide plant growth reduction (GR) of 20 percent, 50 percent, 80 percent and 90 percent, respectively. Probit analysis was applied to data collected from multiple dose rates of individual compounds utilizing the procedures explained in the following examples. The analysis of those dose rates is captured in the following tables.

| SMILES | GR20 TRZSS [g ai/ha] |
| --- | --- |
| COC(=O)c1nc(-c2cc(F)c(I)cc2F)c(F)c(N)c1Cl [Compound 55, methyl 4-amino-3-chloro-6-(2,5-difluoro-4-iodophenyl)-5-fluoropicolinate] | 1 |

Same assay, conditions: Triticum aestivum, post-emergence, 504 h; Table 9; 35 g ai/ha; post-emergent; 21 d; read-out: Visual Growth Reduction (%) 21 Days After Application TRZSS

| SMILES | pest or weed control at 35 g/ha [%] |
| --- | --- |
| COC(=O)c1nc(-c2cc(F)c(I)cc2F)c(F)c(N)c1Cl [Compound 55, methyl 4-amino-3-chloro-6-(2,5-difluoro-4-iodophenyl)-5-fluoropicolinate] | 85 to 94 |

Same assay, conditions: Triticum aestivum, post-emergence, 504 h; Table 9; 70 g ai/ha; post-emergent; 21 d; read-out: Visual Growth Reduction (%) 21 Days After Application TRZSS

| SMILES | pest or weed control at 70 g/ha [%] |
| --- | --- |
| COC(=O)c1nc(-c2cc(F)c(I)cc2F)c(F)c(N)c1Cl [Compound 55, methyl 4-amino-3-chloro-6-(2,5-difluoro-4-iodophenyl)-5-fluoropicolinate] | 95 to 100 |

Test system: LOLSS: ryegrass including, Italian ryegrass (Lolium multiflorum), rigid ryegrass (Lolium rigidum), annual ryegrass (Lolium multiflorum subsp. Gaudini)
Assay: as above
Assay type: in vivo
Settings: Table 9; dose for 50 percent growth reduction, probit analysis; 21 d
Experimental: as §1, §2, §3, §4

| SMILES | GR50 LOLSS [g ai/ha] |
| --- | --- |
| COC(=O)c1nc(-c2cc(F)c(I)cc2F)c(F)c(N)c1Cl [Compound 55, methyl 4-amino-3-chloro-6-(2,5-difluoro-4-iodophenyl)-5-fluoropicolinate] | 21 |

Same assay, conditions: Table 9; dose for 80 percent growth reduction, probit analysis; 21 d

| SMILES | GR80 LOLSS [g ai/ha] |
| --- | --- |
| COC(=O)c1nc(-c2cc(F)c(I)cc2F)c(F)c(N)c1Cl [Compound 55, methyl 4-amino-3-chloro-6-(2,5-difluoro-4-iodophenyl)-5-fluoropicolinate] | 50 |

Test system: APESV: bentgrass (Apera spica-venti)
Assay: as above
Assay type: in vivo
Settings: Apera spica-venti, post-emergence, 504 h; Table 9; 35 g ai/ha; post-emergent; 21 d; read-out: Visual Growth Reduction (%) 21 Days After Application APESV
Experimental: as §1, §2, §3, §4

| SMILES | pest or weed control at 35 g/ha [%] |
| --- | --- |
| COC(=O)c1nc(-c2cc(F)c(I)cc2F)c(F)c(N)c1Cl [Compound 55, methyl 4-amino-3-chloro-6-(2,5-difluoro-4-iodophenyl)-5-fluoropicolinate] | 75 to 84 |

Same assay, conditions: Apera spica-venti, post-emergence, 504 h; Table 9; 70 g ai/ha; post-emergent; 21 d; read-out: Visual Growth Reduction (%) 21 Days After Application APESV

| SMILES | pest or weed control at 70 g/ha [%] |
| --- | --- |
| COC(=O)c1nc(-c2cc(F)c(I)cc2F)c(F)c(N)c1Cl [Compound 55, methyl 4-amino-3-chloro-6-(2,5-difluoro-4-iodophenyl)-5-fluoropicolinate] | 95 to 100 |

Same assay, conditions: Table 9; dose for 50 percent growth reduction, probit analysis; 21 d

| SMILES | GR50 APESV [g ai/ha] |
| --- | --- |
| COC(=O)c1nc(-c2cc(F)c(I)cc2F)c(F)c(N)c1Cl [Compound 55, methyl 4-amino-3-chloro-6-(2,5-difluoro-4-iodophenyl)-5-fluoropicolinate] | 4 |

Same assay, conditions: Table 9; dose for 80 percent growth reduction, probit analysis; 21 d

| SMILES | GR80 APESV [g ai/ha] |
| --- | --- |
| COC(=O)c1nc(-c2cc(F)c(I)cc2F)c(F)c(N)c1Cl [Compound 55, methyl 4-amino-3-chloro-6-(2,5-difluoro-4-iodophenyl)-5-fluoropicolinate] | 18 |

Test system: HORSS: barley, including spring and winter (Hordeum vulgare)
Assay: as above
Assay type: in vivo
Settings: Hordeum vulgare, post-emergence, 504 h; Table 9; 35 g ai/ha; post-emergent; 21 d; read-out: Visual Growth Reduction (%) 21 Days After Application HORSS
Experimental: as §1, §2, §3, §4

| SMILES | pest or weed control at 35 g/ha [%] |
| --- | --- |
| COC(=O)c1nc(-c2cc(F)c(I)cc2F)c(F)c(N)c1Cl [Compound 55, methyl 4-amino-3-chloro-6-(2,5-difluoro-4-iodophenyl)-5-fluoropicolinate] | 85 to 94 |

Same assay, conditions: Hordeum vulgare, post-emergence, 504 h; Table 9; 70 g ai/ha; post-emergent; 21 d; read-out: Visual Growth Reduction (%) 21 Days After Application HORSS

| SMILES | pest or weed control at 70 g/ha [%] |
| --- | --- |
| COC(=O)c1nc(-c2cc(F)c(I)cc2F)c(F)c(N)c1Cl [Compound 55, methyl 4-amino-3-chloro-6-(2,5-difluoro-4-iodophenyl)-5-fluoropicolinate] | 95 to 100 |

Same assay, conditions: Table 9; dose for 20 percent growth reduction, probit analysis; 21 d

| SMILES | GR20 HORSS [g ai/ha] |
| --- | --- |
| COC(=O)c1nc(-c2cc(F)c(I)cc2F)c(F)c(N)c1Cl [Compound 55, methyl 4-amino-3-chloro-6-(2,5-difluoro-4-iodophenyl)-5-fluoropicolinate] | 1 |

Test system: KCHSC: kochia (Kochia scoparia)
Assay: as above
Assay type: in vivo
Settings: Bassia scoparia, post-emergence, 504 h; Table 9; 35 g ai/ha; post-emergent; 21 d; read-out: Visual Growth Reduction (%) 21 Days After Application KCHSC
Experimental: as §1, §2, §3, §4

| SMILES | pest or weed control at 35 g/ha [%] |
| --- | --- |
| COC(=O)c1nc(-c2cc(F)c(I)cc2F)c(F)c(N)c1Cl [Compound 55, methyl 4-amino-3-chloro-6-(2,5-difluoro-4-iodophenyl)-5-fluoropicolinate] | 85 to 94 |

Same assay, conditions: Bassia scoparia, post-emergence, 504 h; Table 9; 70 g ai/ha; post-emergent; 21 d; read-out: Visual Growth Reduction (%) 21 Days After Application KCHSC

| SMILES | pest or weed control at 70 g/ha [%] |
| --- | --- |
| COC(=O)c1nc(-c2cc(F)c(I)cc2F)c(F)c(N)c1Cl [Compound 55, methyl 4-amino-3-chloro-6-(2,5-difluoro-4-iodophenyl)-5-fluoropicolinate] | 85 to 94 |

Same assay, conditions: Table 9; dose for 50 percent growth reduction, probit analysis; 21 d

| SMILES | GR50 KCHSC [g ai/ha] |
| --- | --- |
| COC(=O)c1nc(-c2cc(F)c(I)cc2F)c(F)c(N)c1Cl [Compound 55, methyl 4-amino-3-chloro-6-(2,5-difluoro-4-iodophenyl)-5-fluoropicolinate] | 4 |

Same assay, conditions: Table 9; dose for 80 percent growth reduction, probit analysis; 21 d

| SMILES | GR80 KCHSC [g ai/ha] |
| --- | --- |
| COC(=O)c1nc(-c2cc(F)c(I)cc2F)c(F)c(N)c1Cl [Compound 55, methyl 4-amino-3-chloro-6-(2,5-difluoro-4-iodophenyl)-5-fluoropicolinate] | 21 |

Test system: not listed separately
Assay: as above
Assay type: in vivo, Lolium multiflorum, Lolium rigidum
Settings: Lolium multiflorum, post-emergence, 504 h; Table 9; 35 g ai/ha; post-emergent; 21 d; read-out: Visual Growth Reduction (%) 21 Days After Application LOLSS
Experimental: as §1, §2, §3, §4

| SMILES | pest or weed control at 35 g/ha [%] |
| --- | --- |
| COC(=O)c1nc(-c2cc(F)c(I)cc2F)c(F)c(N)c1Cl [Compound 55, methyl 4-amino-3-chloro-6-(2,5-difluoro-4-iodophenyl)-5-fluoropicolinate] | 60 to 74 |

Same assay, conditions: Lolium multiflorum, post-emergence, 504 h; Table 9; 70 g ai/ha; post-emergent; 21 d; read-out: Visual Growth Reduction (%) 21 Days After Application LOLSS

| SMILES | pest or weed control at 70 g/ha [%] |
| --- | --- |
| COC(=O)c1nc(-c2cc(F)c(I)cc2F)c(F)c(N)c1Cl [Compound 55, methyl 4-amino-3-chloro-6-(2,5-difluoro-4-iodophenyl)-5-fluoropicolinate] | 75 to 84 |

Test system: SETVI: green foxtail (Setaria viridis)
Assay: as above
Assay type: in vivo
Settings: Setaria viridis, post-emergence, 504 h; Table 9; 35 g ai/ha; post-emergent; 21 d; read-out: Visual Growth Reduction (%) 21 Days After Application SETVI
Experimental: as §1, §2, §3, §4

| SMILES | pest or weed control at 35 g/ha [%] |
| --- | --- |
| COC(=O)c1nc(-c2cc(F)c(I)cc2F)c(F)c(N)c1Cl [Compound 55, methyl 4-amino-3-chloro-6-(2,5-difluoro-4-iodophenyl)-5-fluoropicolinate] | 75 to 84 |

Same assay, conditions: Setaria viridis, post-emergence, 504 h; Table 9; 70 g ai/ha; post-emergent; 21 d; read-out: Visual Growth Reduction (%) 21 Days After Application SETVI

| SMILES | pest or weed control at 70 g/ha [%] |
| --- | --- |
| COC(=O)c1nc(-c2cc(F)c(I)cc2F)c(F)c(N)c1Cl [Compound 55, methyl 4-amino-3-chloro-6-(2,5-difluoro-4-iodophenyl)-5-fluoropicolinate] | 85 to 94 |

Same assay, conditions: Table 9; dose for 50 percent growth reduction, probit analysis; 21 d

| SMILES | GR50 SETVI [g ai/ha] |
| --- | --- |
| COC(=O)c1nc(-c2cc(F)c(I)cc2F)c(F)c(N)c1Cl [Compound 55, methyl 4-amino-3-chloro-6-(2,5-difluoro-4-iodophenyl)-5-fluoropicolinate] | 29 |

Same assay, conditions: Table 9; dose for 80 percent growth reduction, probit analysis; 21 d

| SMILES | GR80 SETVI [g ai/ha] |
| --- | --- |
| COC(=O)c1nc(-c2cc(F)c(I)cc2F)c(F)c(N)c1Cl [Compound 55, methyl 4-amino-3-chloro-6-(2,5-difluoro-4-iodophenyl)-5-fluoropicolinate] | 46 |
